Test results from patent publication US7589097B2, “Triazol[4,5-d] pyramidine derivatives and their use as purinergic receptor antagonists” (Vernalis Research Limited, priority 2001, dated 2009).
pKi: −log10 of the molar value.

How the values were obtained:
[1] = target: human adenosine A2A receptors (Homo sapiens, UniProt P29274); experiment: Binding affinities at hA2A receptors, displacement of [3H]-CGS 21680
From the text: Adenosine Receptor Binding Binding Affinities at hA2A Receptors

cataleptic responses = details: cited from earlier work
Parkinsonian patients = details: cited from earlier work

human adenosine A2A receptors, sequence (P29274 whole entry): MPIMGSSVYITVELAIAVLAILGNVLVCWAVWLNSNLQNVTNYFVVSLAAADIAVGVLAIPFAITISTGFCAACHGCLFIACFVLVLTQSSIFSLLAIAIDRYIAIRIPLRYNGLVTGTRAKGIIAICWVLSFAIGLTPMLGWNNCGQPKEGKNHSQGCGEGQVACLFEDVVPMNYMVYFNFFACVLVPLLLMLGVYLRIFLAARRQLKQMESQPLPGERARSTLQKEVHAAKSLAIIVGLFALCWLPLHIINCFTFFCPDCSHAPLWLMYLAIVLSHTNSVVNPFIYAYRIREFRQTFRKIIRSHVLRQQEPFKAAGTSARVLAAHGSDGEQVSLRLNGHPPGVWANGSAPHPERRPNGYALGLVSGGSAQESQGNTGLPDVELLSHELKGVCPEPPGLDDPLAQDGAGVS

SMILES	melting point	pKi [1]	further results
Nc1nc(-c2ccco2)c2nnn(Cc3ccccc3[N+](=O)[O-])c2n1 [Example 12, 7-(2-furyl)-3-(2-nitrobenzyl)-3H-[1,2,3]triazolo[4,5-d]pyrimidine-5-amine]		8.15	
N#Cc1cccc(Cn2nnc3c(-c4ccco4)nc(N)nc32)c1 [Example 15, 3-(3-cyanobenzyl)-7-(2-furyl)-3H-[1,2,3]triazolo[4,5-d]pyrimidine-5-amine]		8.40	
Nc1nc(-c2ccco2)c2nnn(Cc3cc([N+](=O)[O-])ccc3F)c2n1 [Example 78, 3-(2-fluoro-5-nitrobenzyl)-7-(2-furyl)-3H-[1,2,3]triazolo[4,5-d]pyrimidine-5-amine]		8.52	
Nc1nc(-c2ccco2)c2nnn(Cc3cccc4cccnc34)c2n1 [Example 107, 7-(2-furyl)-3-(8-quinolinylmethyl)-3H-[1,2,3]triazolo[4,5-d]pyrimidine-5-amine]	276.4 to 277.4 °C	8.70	
Nc1nc(-c2ccco2)c2nnn(Cc3ccc(Cl)cc3N)c2n1 [Example 120, 3-(2-amino-4-chlorobenzyl)-7-(2-furyl)-3H-[1,2,3]triazolo[4,5-d]pyrimidine-5-amine]	211.4 to 211.6 °C	9.00	
Nc1nc(-c2ccco2)c2nnn(Cc3c(F)cc(O)cc3F)c2n1 [Example 149, 3-(2,6-difluoro-4-hydroxybenzyl)-7-(2-furyl)-3H-[1,2,3]triazolo[4,5-d]pyrimidine-5-amine]		9.00	
Nc1nc(-c2ccco2)c2nnn(Cc3cc(I)ccc3F)c2n1 [Example 169, 3-(2-fluoro-5-iodobenzyl)-7-(2-furyl)-3H-[1,2,3]triazolo[4,5-d]pyrimidine-5-amine]		8.70	
Nc1nc(-c2ccco2)c2nnn(Cc3ccc4ccccc4n3)c2n1 [Example 188, 7-(2-furyl)-3-(quinolin-2-ylmethyl)-3H-[1,2,3]triazolo[4,5-d]pyrimidine-5-amine]	228.9 to 229.9 °C	9.00	
CN(C)Cc1cccc(Cn2nnc3c(-c4ccco4)nc(N)nc32)n1 [Example 233, 3-(6-(N,N-dimethylamino)methyl-2-pyridylmethyl)-7-(2-furyl)-3H-[1,2,3]triazolo[4,5-d]pyrimidine-5-amine]	219.7 to 222.3 °C	8.40	
Nc1nc(-c2ccco2)c2nnn(Cc3cccc(NCc4ccccn4)c3)c2n1 [Example 255, 3-(3-(2-pyridylmethylamino)benzyl)-7-(2-furyl)-3H-[1,2,3]triazolo[4,5-d]pyrimidine-5-amine]	184.5 to 184.6 °C	8.40	
CCCn1c(=O)c2c(nc(/C=C/c3ccc(OC)c(OC)c3)n2C)n(CCC)c1=O [KF 17837, (E)-8-(3,4-dimethoxystyryl)-1,3-dipropyl-7-methylxanthine]			anticataleptic effects of a subthreshold dose of L-DOPA plus benserazide (cataleptic responses; in vivo): potentiated; catalepsy induced by haloperidol and reserpine (cataleptic responses; in vivo): reduced; cataleptic responses induced by intracerebroventricular CGS 21680 (cataleptic responses; oral administration): significantly ameliorated
Cn1c(=O)c2[nH]cnc2n(C)c1=O [Theophylline, theophylline]			mean objective disability scores (Parkinsonian patients; 15 Parkinsonian patients, up to 12 weeks, 150 mg/day oral): significant improvements; patients reporting moderate or marked subjective improvement (Parkinsonian patients; of 15 Parkinsonian patients, up to 12 weeks, 150 mg/day oral): 11; serum theophylline levels (Parkinsonian patients; slow release oral preparation 150 mg/day, after one week, Parkinsonian patients): 4.44 mg/L

Second part, led by results:

melting point	pKi [1]	SMILES	further results
259.8 to 259.9 °C	8.52	Nc1cccc(Cn2nnc3c(-c4ccco4)nc(N)nc32)c1 [Example 5, 3-(3-Aminobenzyl)-7-(2-furyl)-3H-[1,2,3]triazolo[4,5-d]pyrimidine-5-amine]	
	8.70	COc1cccc(Cn2nnc3c(-c4ccco4)nc(N)nc32)c1 [Example 11, 7-(2-furyl)-3-(3-methoxybenzyl)-3H-[1,2,3]triazolo[4,5-d]pyrimidine-5-amine]	
	8.70	Nc1nc(-c2ccco2)c2nnn(Cc3ccccc3N)c2n1 [Example 13, 3-(2-aminobenzyl)-7-(2-furyl)-3H-[1,2,3]triazolo[4,5-d]pyrimidine-5-amine]	
213.8 to 213.9 °C	8.70	Nc1nc(-c2ccco2)c2nnn(Cc3c(F)cccc3F)c2n1 [Example 41, 3-(2,6-difluorobenzyl)-7-(2-furyl)-3H-[1,2,3]triazolo[4,5-d]pyrimidine-5-amine]	
188.8 to 188.9 °C	8.70	Nc1nc(-c2ccco2)c2nnn(Cc3cccc(F)c3F)c2n1 [Example 57, 3-(2,3-difluorobenzyl)-7-(2-furyl)-3H-[1,2,3]triazolo[4,5-d]pyrimidine-5-amine]	
267.9 to 268.5 °C	8.70	Cc1cccc(Cn2nnc3c(-c4ccco4)nc(N)nc32)c1[N+](=O)[O-] [Example 92, 7-(2-furyl)-3-(3-methyl-2-nitrobenzyl)-3H-[1,2,3]triazolo[4,5-d]pyrimidine-5-amine]	
274.2 to 274.3 °C	8.70	COc1cc(F)c(Cn2nnc3c(-c4ccco4)nc(N)nc32)c(F)c1 [Example 156, 3-(2,6-Difluoro-4-methoxybenzyl)-7-(2-furyl)-3H-[1,2,3]triazolol[4,5-d]pyrimidine-5-amine]	
210.5 to 211.6 °C	9.00	C=Cc1cccc(Cn2nnc3c(-c4ccco4)nc(N)nc32)n1 [Example 202, 7-(2-furyl)-3-(6-vinyl-2-pyridylmethyl)-3H-[1,2,3]triazolo[4,5-d]pyrimidine-5-amine]	
> 250 °C (dec.)	9.00	Nc1nc(-c2ccco2)c2nnn(Cc3ccc4c(c3)OCO4)c2n1 [Example 209, 7-(2-furyl)-3-(3,4-methylenedioxybenzyl)-3H-[1,2,3]triazolo[4,5-d]pyrimidine-5-amine]	
	8.70	Nc1nc(-c2ccco2)c2nnn(Cc3ccc(O)cc3)c2n1 [Example 221, 3-(4-Hydroxybenzyl)-7-(2-furyl)-3H-[1,2,3]triazolo[4,5-d]pyrimidine-5-amine]	
